Measured values published in US9884041B2 (YONSEI […], INC., priority 2010, dated 2018).

Experiments:
rats [1] = settings: feed containing 0.1% piperonal and 0.5% piperonal, 2 years; cited from earlier work
[2] = test system: cancinogenesis animal model; settings: in vivo; cited from earlier work
UCP3 = experiment: RT-PCR analysis of UCP3 gene expression in mouse visceral fat tissues; type: in vivo, mice; settings: mRNA by RT-PCR, normalized to GAPDH, to the similar level to the ND group
From the text: (§1) FIG. 7 represents the expression profiles of UCPs genes in the visceral fat tissues of mice. The left panel represents images of RT-PCR analysis results for UCP1 and UCP3, and the right panel represents relative expression levels of these genes. The data were normalized to GAPDH mRNA levels and expressed as relative values to those from ND mouse. The results are represented as mean±SEM (standard error) of values obtained from RNA sample of eight mice with three independent experiments. The characters above the bars indicate significant difference in dietary groups by one-way analysis of variance (ANOVA) test and Duncan's multiple range test (P<0.05).
(§2) After adding 1 mL of Trizol agent per 0.1 g of visceral fat tissues, the mixture was homogenized and centrifuged at 12,000×g for 10 min at 4° C. The supernatant was transferred to a new tube and 200 μl of chloroform was added to the tube, followed by vortexing. The same procedure was repeated twice and then the supernatant was transferred to a new tube, followed by addition of isopropanol and the supernatant at 1:1 ratio. […] The RNA sample concentration was measured at a wavelength of 260 nm and 280 nm using a UV/VIS spectrophotometer (Beckman coulter, DU730) and the integrity of RNA sample was verified by agarose gel electrophoresis. […]

UCP1 = experiment: RT-PCR analysis of UCP1 gene expression in mouse visceral fat tissues; type: in vivo, mice; settings: mRNA by RT-PCR, normalized to GAPDH, to the similar level to the ND group
From the text: as §1, §2

PPARγ2 = experiment: RT-PCR analysis of PPARγ2 gene expression in mouse liver tissues; type: in vivo, mice; settings: mRNA by RT-PCR, vs HFD, to levels similar for the ND
From the text: (§3) FIG. 8 represents the expression profiles of genes relating to lipogenesis in mice liver tissues. The left panel represents images of RT-PCR analysis results for C/EBPα, PPARγ2 and aP2, and the right panel represents relative expression levels of these genes. The data were normalized to GAPDH mRNA levels and expressed as relative values to those from ND mouse. The results are represented as mean±SEM (standard error) of values obtained from RNA sample of eight mice with three independent experiments. The characters above the bars indicate significant difference in dietary groups by one-way analysis of variance (ANOVA) test and Duncan's multiple range test (P<0.05).
as §2, with “liver” for “visceral fat”

human = human took 10 g of piperonal; cited from earlier work
aP2 = experiment: RT-PCR analysis of aP2 gene expression in mouse liver tissues; type: in vivo, mice; settings: mRNA by RT-PCR, vs HFD, to levels similar for the ND
From the text: as §3
as §2, with “liver” for “visceral fat”

patients = settings: sense of smell stimulated through nasal cannula during MRI for cancer diagnosis; cited from earlier work
TNF-α = experiment: RT-PCR analysis of TNF-α gene expression in mouse liver tissues; type: in vivo, mice; settings: mRNA by RT-PCR
From the text: as §3, with “9” for “8”, “inflammation” for “lipogenesis”, “TNFα” for “C/EBPα, PPARγ2”, “IL-6,” for “aP2,”
as §2, with “liver” for “visceral fat”

C57BL/6J mice [3] = experiment: Plasma lipid and glucose levels of mice fed test diets; type: in vivo; settings: HFD with 0.05% piperonal, 10 weeks
Method: (§4) The obesity-inducing control diet used in the test was high-fat diet (HFD: 40% fat calorie, 17 g lard+3% corn oil/100 g diet). […] The normal diet (ND) was prepared under AIN-76 rodent diet (American Institute of Nutrition, Report of the American Institute of Nutrition ad hoc committee on standards for nutritional studies. J. Nutr. 107: 1340-1348, 1977) (see Table 1). Piperonal was purchased from Sigma-Aldrich.
(§5) 5-week-old male C57BL/6J mice (Orient, Korea) were accustomed to the laboratory environment for 1 week while feeding solid feed. Then, they were randomly divided into normal diet, high-fat diet and test groups and bred for a total of 10 weeks. The diet was given between 10 and 11 a.m. every day together with water. Food intake was measured every day and body weight was measured once a week. In order to avoid transient body weight increase after feed intake, body weight was measured 2 hours after removing the feed. After fasting the test animal for at least 12 hours and anesthetizing with diethyl ether, blood, liver and visceral fat (epididymal fat, perirenal fat, mesenteric fat and retroperitoneal fat) were taken and weighed after washing with 0.1 M PBS (pH 7.4). Blood taken from the abdominal aorta was centrifuged at 1000×g for 15 minutes for the separation of plasma.
After 10 weeks of breeding, total cholesterol, HDL-cholesterol, triglyceride and glucose levels in the plasma and lipid levels in the liver tissue were measured as follows. Total cholesterol, HDL-cholesterol, triglyceride, free fatty acid and glucose levels in the plasma were measured twice for each using a commercially available kit (Bio Clinical System). LDL+VLDL cholesterol levels in the blood were calculated by subtracting HDL-cholesterol levels from the total cholesterol levels.

C57BL/6J mice [4] = experiment: Body weight, food intake and visceral fat-pad weights of mice fed test diets (HFD-induced obesity); type: in vivo; settings: HFD with 0.05% piperonal, 10 weeks
Method: as §4, §5
The food efficiency ratio was calculated by dividing the total body weight gain during the experimental period (g) by the total food intake (g) (FIGS. 1 and 2).

C/EBPα = experiment: RT-PCR analysis of C/EBPα gene expression in mouse liver tissues; type: in vivo, mice; settings: mRNA by RT-PCR, vs HFD, to levels similar for the ND
From the text: as §3
as §2, with “liver” for “visceral fat”

C57BL/6J mice [5] = experiment: Liver weights, liver lipid levels and liver function indicators (ALT, AST) of mice fed test diets; type: in vivo; settings: HFD with 0.05% piperonal, 10 weeks
Method: as §4, §5
Lipids were extracted from the liver tissue according to Folch et al.'s method (Folch J et al., J Biol Chem. 226: 497-509 (1957)). After adding 1 mL of distilled water to 0.25 g of liver tissue, the liver tissue was homogenized using a Polytron homogenizer (IKA-Werke GmbH & Co., Ultra-Turrax, Staufen, Germany). After adding 5 mL of chloroform:methanol solution (2:1, v/v) to the homogenate and mixing well, the mixture was centrifuged at 1000×g for 10 minutes. After adding 2 mL of chloroform:methanol solution (2:1, v/v) again to the supernatant, the same procedure was repeated to completely separate the lipid components of the liver. After adding 3 mL of chloroform:methanol:0.05% CaCl2 (3:48:47, v/v/v) solution to the remaining pellets and mixing well for 1 minute, followed by centrifugation at 1000×g for 10 minutes, the resulting pellets were completely dried with nitrogen gas. The dried lipids were dissolved in 1 mL of methanol and then analyzed.
The same kit (Bio Clinical System) as that used for the plasma analysis was used to measure the triglyceride, cholesterol and free fatty acid levels of the liver tissue.
The activity of ALT (alanine aminotransferase) and AST (aspartate aminotransferase) used as liver function indicator were measured twice for each using a commercially available kit (Bio Clinical System, Korea).

rats [6] = settings: cited from earlier work
IL-6 = experiment: RT-PCR analysis of IL-6 gene expression in mouse liver tissues; type: in vivo, mice; settings: mRNA by RT-PCR
From the text: as §3, with “9” for “8”, “inflammation” for “lipogenesis”, “TNFα” for “C/EBPα, PPARγ2”, “IL-6,” for “aP2,”
as §2, with “liver” for “visceral fat”

O=Cc1ccc2c(c1)OCO2 [piperonal, 1,3-benzodioxole-5-carboxaldehyde]
toxicity in rats (rats [1]): no toxicity | effect in carcinogenesis animal model [2]: cancer inhibitory effect | HFD-induced decrease in expression of UCP3 gene (UCP3): significantly reversed | HFD-induced decrease in expression of UCP1 gene (UCP1): significantly reversed | expression of PPARγ2 gene (PPARγ2): significantly decreased | toxicity in human (human): no toxicity | expression of aP2 gene (aP2): significantly decreased | anxiety of patients during MRI (patients): relief from anxiety | HFD-induced elevation in the expression of TNF-α (TNF-α): significantly reversed | lower atherogenic indices as compared to HFD group (C57BL/6J mice [3]): 17% | lower plasma level of free fatty acid as compared to HFD group (C57BL/6J mice [3]): 17% | lower plasma level of total cholesterol as compared to HFD group (C57BL/6J mice [3]): 14% | lower plasma level of triglyceride as compared to HFD group (C57BL/6J mice [3]): 21% | reduction of fasting blood sugar level as compared to HFD (C57BL/6J mice [3]): 27% | lower plasma level of LDL+VLDL cholesterol as compared to HFD group (C57BL/6J mice [3]; total cholesterol minus HDL-cholesterol): 18% | decrease of body weight gain as compared to HFD (C57BL/6J mice [4]): 19% | reduced weight of epididymal fat-pad as compared to HFD (C57BL/6J mice [4]): 11% | reduced weight of mesenteric fat-pad as compared to HFD (C57BL/6J mice [4]): 20% | reduced weight of perirenal fat-pad as compared to HFD (C57BL/6J mice [4]): 35% | reduced weight of retroperitoneal fat-pad as compared to HFD (C57BL/6J mice [4]): 8% | reduction of total visceral fat weight, POD group vs HFD group (C57BL/6J mice [4]; P<0.001): 15% | daily food intake (C57BL/6J mice [4]; vs HFD): no significant change | expression of C/EBPα gene (C/EBPα): significantly decreased | decrease of absolute organ weight of liver as compared to HFD (C57BL/6J mice [5]): 23% | decreased level of cholesterol in liver tissue as compared to HFD (C57BL/6J mice [5]): 39% | decreased level of free fatty acid in liver tissue as compared to HFD (C57BL/6J mice [5]): 27% | decreased level of triglyceride in liver tissue as compared to HFD (C57BL/6J mice [5]): 13% | decreased plasma activity of ALT as compared to HFD group (C57BL/6J mice [5]): 27% | decreased plasma activity of AST as compared to HFD group (C57BL/6J mice [5]): 15% | LD50 (rats [6]): more than 2,700 mg/kg | HFD-induced elevation in the expression of IL-6 (IL-6): significantly reversed
